Data set [1] is described as follows: Half life in rat. In kind it is ADME. To be noted: in vivo.
Data set [2] concerns the target T1, Metabotropic glutamate receptor 4 (Homo sapiens, UniProt Q14833). In words: Positive allosteric modulator activity at human mGlu4 receptor/Gqi5 assessed as maximum activity at 30 uM by calcium mobilization assay relative to glutamic acid. The data set is classed as functional. The conditions noted are these: filed as positive allosteric modulator.
Data set [3] concerns Rattus norvegicus. The experiment in a line: Reversal of haloperidol-induced catalepsy in rat assessed as reduction in catalepsy at 3 mg/kg, po dosed along with 1.5 mg/kg haloperidol relative to untreated control. In kind it is functional. On the set-up: scale not given: the % may be the effect or the level left.
The target in data set [4] is T1, Metabotropic glutamate receptor 4. In words: Positive allosteric modulator activity at human mGlu4 receptor/Gqi5 in presence of EC20 glutamate by calcium mobilization assay. In kind it is functional.
The nature of data set [5]: Brain to plasma partition coefficient, Kp of the compound in Sprague-Dawley rat at 0.20 to 0.25 mg/kg, iv cassette dose measured at 0.25 hrs. In kind it is ADME, organism-based. To be noted: dose 0.20-0.25 mg/kg.
The target of the next data set is Cytochrome P450 3A4 (Homo sapiens, UniProt P08684). In words: Inhibition of CYP3A4 (unknown origin). The data set is classed as ADME.
Cytochrome P450 3A4, sequence (P08684 whole entry): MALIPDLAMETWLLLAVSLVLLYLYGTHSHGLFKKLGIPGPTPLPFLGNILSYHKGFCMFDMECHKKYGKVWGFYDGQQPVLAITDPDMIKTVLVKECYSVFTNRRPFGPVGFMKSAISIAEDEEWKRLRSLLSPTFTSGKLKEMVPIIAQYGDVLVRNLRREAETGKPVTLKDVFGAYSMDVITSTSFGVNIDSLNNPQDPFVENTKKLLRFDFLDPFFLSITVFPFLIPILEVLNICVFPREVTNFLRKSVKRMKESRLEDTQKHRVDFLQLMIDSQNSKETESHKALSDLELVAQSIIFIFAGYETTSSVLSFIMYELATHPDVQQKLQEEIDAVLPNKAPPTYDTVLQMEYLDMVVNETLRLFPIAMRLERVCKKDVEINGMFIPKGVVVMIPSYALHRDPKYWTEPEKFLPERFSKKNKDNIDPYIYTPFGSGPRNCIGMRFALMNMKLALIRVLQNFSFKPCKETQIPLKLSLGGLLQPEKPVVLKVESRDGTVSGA
Another data set addresses Cytochrome P450 2C9 (Homo sapiens, UniProt P11712). In words: Inhibition of CYP2C9 (unknown origin). The data set is classed as ADME.
Data set [6] in a line: Protein binding in human plasma assessed as unbound fraction. In kind it is ADME, cell-free.
Data set [7] can be described thus: Protein binding in rat plasma assessed as unbound fraction. In kind it is ADME, cell-free.
In another data set the target is T2, Cytochrome P450 1A2 (Homo sapiens, UniProt P05177).
T2 sequence (P05177 whole entry): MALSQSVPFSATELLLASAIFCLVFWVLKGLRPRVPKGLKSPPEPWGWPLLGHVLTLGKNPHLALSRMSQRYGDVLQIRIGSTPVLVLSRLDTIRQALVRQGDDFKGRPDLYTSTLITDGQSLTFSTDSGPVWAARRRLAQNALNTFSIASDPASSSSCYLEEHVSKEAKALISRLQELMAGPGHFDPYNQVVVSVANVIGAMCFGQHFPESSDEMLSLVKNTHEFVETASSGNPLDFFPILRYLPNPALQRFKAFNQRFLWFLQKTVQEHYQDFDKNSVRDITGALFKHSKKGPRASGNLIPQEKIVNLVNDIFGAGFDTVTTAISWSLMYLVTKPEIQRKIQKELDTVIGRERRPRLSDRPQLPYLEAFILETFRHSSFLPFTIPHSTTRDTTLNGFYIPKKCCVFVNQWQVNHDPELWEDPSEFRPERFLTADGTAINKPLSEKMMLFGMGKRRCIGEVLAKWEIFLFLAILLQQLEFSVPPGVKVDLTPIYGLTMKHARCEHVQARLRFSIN
In words: Inhibition of CYP1A2 (unknown origin). The data set is classed as ADME.

The target of the next data set is Cytochrome P450 2D6 (Homo sapiens, UniProt P10635). The experiment in a line: Inhibition of CYP2D6 (unknown origin). In kind it is ADME.
Cytochrome P450 2D6, sequence (P10635 whole entry): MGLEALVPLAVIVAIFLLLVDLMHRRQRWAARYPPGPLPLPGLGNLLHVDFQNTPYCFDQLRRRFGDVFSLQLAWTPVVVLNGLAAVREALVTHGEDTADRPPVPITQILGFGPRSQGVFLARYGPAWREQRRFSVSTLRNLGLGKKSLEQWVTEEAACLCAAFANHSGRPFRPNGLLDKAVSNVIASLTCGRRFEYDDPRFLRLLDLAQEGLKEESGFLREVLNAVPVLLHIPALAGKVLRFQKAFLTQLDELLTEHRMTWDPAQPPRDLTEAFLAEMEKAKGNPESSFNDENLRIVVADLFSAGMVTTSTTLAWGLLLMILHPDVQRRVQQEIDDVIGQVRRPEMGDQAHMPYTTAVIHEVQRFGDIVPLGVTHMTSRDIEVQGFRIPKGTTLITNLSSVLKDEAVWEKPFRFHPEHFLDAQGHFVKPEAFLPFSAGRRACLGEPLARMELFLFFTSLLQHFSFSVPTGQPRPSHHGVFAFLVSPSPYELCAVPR
In data set [8] the test system is Rattus norvegicus. In words: Reversal of haloperidol-induced catalepsy in po dosed rat assessed as minimum effective dose. In kind it is functional. To be noted: read-out: MED.
Data set [9] has as its target Metabotropic glutamate receptor 4 (Rattus norvegicus, UniProt P31423). The experiment in a line: Positive allosteric modulator activity at rat mGlu4 receptor/Gqi5 in presence of EC20 glutamate by calcium mobilization assay. The data set is classed as functional.
A further data set concerns the target Cytochrome P450 2C19 (Homo sapiens, UniProt P33261). The experiment in a line: Inhibition of CYP2C19 (unknown origin). The data set is classed as ADME.
The target in data set [10] is Metabotropic glutamate receptor 4 (Rattus norvegicus) (UniProt P31423). The experiment in a line: Positive allosteric modulator activity at rat mGlu4 receptor/Gqi5 assessed as maximum activity by calcium mobilization assay relative to glutamic acid. In kind it is functional. To be noted: filed as positive allosteric modulator.
Metabotropic glutamate receptor 4 (Rattus norvegicus), sequence (P31423 whole entry): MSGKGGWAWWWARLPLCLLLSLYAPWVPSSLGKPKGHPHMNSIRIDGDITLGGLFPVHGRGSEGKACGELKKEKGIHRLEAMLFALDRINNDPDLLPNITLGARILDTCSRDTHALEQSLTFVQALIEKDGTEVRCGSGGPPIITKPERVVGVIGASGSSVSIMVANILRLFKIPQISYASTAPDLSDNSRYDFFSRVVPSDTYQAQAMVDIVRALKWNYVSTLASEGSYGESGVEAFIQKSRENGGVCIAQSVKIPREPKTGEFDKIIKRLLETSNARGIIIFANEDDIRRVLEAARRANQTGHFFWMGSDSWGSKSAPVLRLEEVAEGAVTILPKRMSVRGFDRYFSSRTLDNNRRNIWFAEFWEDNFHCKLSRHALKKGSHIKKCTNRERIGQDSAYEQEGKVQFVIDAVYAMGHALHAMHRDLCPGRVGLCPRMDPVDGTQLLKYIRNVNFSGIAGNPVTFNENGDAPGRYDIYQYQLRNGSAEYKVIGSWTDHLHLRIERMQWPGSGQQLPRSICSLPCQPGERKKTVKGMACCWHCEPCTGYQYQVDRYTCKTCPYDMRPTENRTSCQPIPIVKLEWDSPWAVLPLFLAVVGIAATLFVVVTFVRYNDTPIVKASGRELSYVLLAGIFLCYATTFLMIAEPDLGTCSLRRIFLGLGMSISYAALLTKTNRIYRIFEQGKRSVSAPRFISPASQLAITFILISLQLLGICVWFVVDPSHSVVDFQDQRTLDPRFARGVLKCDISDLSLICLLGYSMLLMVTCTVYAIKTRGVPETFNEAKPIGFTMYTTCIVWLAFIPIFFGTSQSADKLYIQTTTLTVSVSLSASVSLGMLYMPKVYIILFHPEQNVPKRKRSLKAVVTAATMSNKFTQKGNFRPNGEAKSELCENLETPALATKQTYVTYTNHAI
Data set [11] is described as follows: Hepatic clearance in human. The data set is classed as ADME.
Data set [12] in a line: Fraction unbound in rat brain homogenate. The data set is classed as ADME, tissue-based.
A short description of data set [13]: Volume of distribution at steady state in rat. The data set is classed as ADME. To be noted: in vivo.

The structures appear in SMILES notation.

T1 sequence (Q14833 whole entry): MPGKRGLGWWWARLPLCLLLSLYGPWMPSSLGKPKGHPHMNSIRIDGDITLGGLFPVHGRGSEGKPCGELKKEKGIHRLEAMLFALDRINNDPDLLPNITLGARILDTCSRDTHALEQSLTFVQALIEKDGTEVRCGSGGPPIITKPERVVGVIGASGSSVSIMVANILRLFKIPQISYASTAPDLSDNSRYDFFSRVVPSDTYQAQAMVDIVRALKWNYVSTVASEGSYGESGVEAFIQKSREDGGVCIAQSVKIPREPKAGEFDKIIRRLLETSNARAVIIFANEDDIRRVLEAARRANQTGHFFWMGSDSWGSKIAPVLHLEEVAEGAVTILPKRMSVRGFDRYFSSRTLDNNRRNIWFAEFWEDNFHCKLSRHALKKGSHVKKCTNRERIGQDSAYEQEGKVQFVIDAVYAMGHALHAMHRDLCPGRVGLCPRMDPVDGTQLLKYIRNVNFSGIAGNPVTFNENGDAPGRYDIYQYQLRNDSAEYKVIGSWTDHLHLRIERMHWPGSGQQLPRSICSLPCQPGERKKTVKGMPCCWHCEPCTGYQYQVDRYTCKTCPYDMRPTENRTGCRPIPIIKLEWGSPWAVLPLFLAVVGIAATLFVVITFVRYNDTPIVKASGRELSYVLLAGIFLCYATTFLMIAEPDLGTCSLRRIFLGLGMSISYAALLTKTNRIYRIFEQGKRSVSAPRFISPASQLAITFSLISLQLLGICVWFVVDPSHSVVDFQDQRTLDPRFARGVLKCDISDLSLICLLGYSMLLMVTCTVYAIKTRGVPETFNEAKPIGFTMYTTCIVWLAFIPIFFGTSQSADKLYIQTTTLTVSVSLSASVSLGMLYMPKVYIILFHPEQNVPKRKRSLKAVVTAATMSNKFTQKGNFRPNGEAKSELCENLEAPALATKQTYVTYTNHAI
Cytochrome P450 2C9, sequence (P11712 whole entry): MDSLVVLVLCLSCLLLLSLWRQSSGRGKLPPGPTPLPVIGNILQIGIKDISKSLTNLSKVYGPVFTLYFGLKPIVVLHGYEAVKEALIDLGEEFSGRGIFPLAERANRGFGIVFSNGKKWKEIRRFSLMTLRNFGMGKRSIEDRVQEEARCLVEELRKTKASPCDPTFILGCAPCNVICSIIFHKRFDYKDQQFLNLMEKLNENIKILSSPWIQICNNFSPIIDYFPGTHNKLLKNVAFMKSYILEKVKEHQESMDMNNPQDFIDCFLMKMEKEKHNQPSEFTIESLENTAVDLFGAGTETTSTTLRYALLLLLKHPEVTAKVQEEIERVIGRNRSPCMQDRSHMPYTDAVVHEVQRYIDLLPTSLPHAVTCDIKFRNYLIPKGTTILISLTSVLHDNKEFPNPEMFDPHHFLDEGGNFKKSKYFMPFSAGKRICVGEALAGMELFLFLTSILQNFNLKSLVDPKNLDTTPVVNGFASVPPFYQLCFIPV
Cytochrome P450 2C19, sequence (P33261 whole entry): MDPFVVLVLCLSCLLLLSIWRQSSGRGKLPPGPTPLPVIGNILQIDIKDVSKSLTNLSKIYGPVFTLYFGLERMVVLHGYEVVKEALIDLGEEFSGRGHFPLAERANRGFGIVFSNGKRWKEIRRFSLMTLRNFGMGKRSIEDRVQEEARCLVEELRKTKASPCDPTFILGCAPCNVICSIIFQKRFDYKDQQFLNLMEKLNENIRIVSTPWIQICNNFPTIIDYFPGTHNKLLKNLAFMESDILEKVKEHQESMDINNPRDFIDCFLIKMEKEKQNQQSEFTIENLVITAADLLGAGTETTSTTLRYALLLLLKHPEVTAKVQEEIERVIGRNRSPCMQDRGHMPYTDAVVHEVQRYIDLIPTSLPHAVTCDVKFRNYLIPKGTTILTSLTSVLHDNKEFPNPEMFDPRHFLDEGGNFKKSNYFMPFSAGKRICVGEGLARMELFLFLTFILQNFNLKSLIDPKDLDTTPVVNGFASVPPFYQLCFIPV
Metabotropic glutamate receptor 4 (Rattus norvegicus, UniProt P31423), sequence (P31423 whole entry): as the sequence (P31423 whole entry) above

For `FC(F)(F)c1nccc2cc(Nc3n[nH]c4nccnc34)ccc12`, in data set [1], the half-life is under 1 h. The values for the Activity (in data set [2]; in the data set with Rattus norvegicus [3]) were 83% and 24%, respectively. The EC50 in [4] is 51 nM.

With `c1cnc2c(Nc3ccc4ccncc4c3)n[nH]c2c1`, the EC50 in data set [4] is over 10000 nM.

`c1cnc2c(Nc3ccc4c(N5CCCCC5)nccc4c3)n[nH]c2c1`: the Activity in [2] is 74%. Besides, in data set [4], the EC50 came to 215 nM.

In [5], `FC(F)c1nccc2cc(Nc3n[nH]c4cccnc34)ccc12` came in with a Kp at 0.25 h of 2.2. The IC50 at Cytochrome P450 3A4 was over 30000 nM; on Cytochrome P450 2C9, 30000 nM; at Cytochrome P450 1A2 it was 300 nM; against Cytochrome P450 2D6, over 30000 nM. In addition, the Activity in [2] worked out at 67%; with Rattus norvegicus [3], 45%. For the same compound, the Fu in data set [6] is on record as 0.03 fraction; in data set [7] it was 0.032 fraction. The EC50 in [4] is 8 nM.

As to `COCCNc1nccc2cc(Nc3n[nH]c4cccnc34)ccc12`, the Activity in [2] was 89%. In addition, the EC50 in data set [4] was 121 nM.

As for `CC(C)Cn1ccc2cc(Nc3n[nH]c4cccnc34)ccc2c1=O`, in data set [2], the Activity turned out to be 24%. Also, the EC50 in data set [4] worked out at 685 nM.

With `O=c1c2ccc(Nc3n[nH]c4cccnc34)cc2ccn1C1CCCC1`, the Activity in data set [2] amounted to 22%. Also, in data set [4], the EC50 was determined as 1730 nM.

With `O=c1c2ccc(Nc3n[nH]c4cccnc34)cc2ccn1CC1CCC1`, in data set [2], the Activity amounted to 31%. Further, the EC50 in [4] worked out at 653 nM.

As for `CN1CCN(c2nccc3cc(Nc4n[nH]c5cccnc45)ccc23)CC1`, the Activity in [2] is 72%. In addition, the EC50 in data set [4] was determined as 1290 nM.

With `c1cnc2c(Nc3ccc4c(C5CC5)nccc4c3)n[nH]c2c1`, the Activity in data set [2] is 86%. At Cytochrome P450 1A2, this compound registered an IC50 of under 1000 nM. In data set [4], the EC50 stood at 71 nM.

Take `c1cnc2ccc(Nc3n[nH]c4cccnc34)cc2c1`: the Activity in [2] is 42%. Besides, the EC50 in [4] came to 732 nM.

Consider `FC1(F)CCN(c2nccc3cc(Nc4n[nH]c5cccnc45)ccc23)C1`, for which the Activity in data set [2] came to 75%. Besides, in data set [4], the EC50 is 249 nM.

In [5], `CC(c1nccc2cc(Nc3n[nH]c4cccnc34)ccc12)C(F)(F)F` (stereo not given) returned a Kp at 0.25 h of 2.2. The Activity in data set [2] was determined as 100%. Moreover, the EC50 in [4] came out at 36 nM.

For `Cc1cc(C)n(-c2nccc3cc(Nc4n[nH]c5cccnc45)ccc23)n1`, in data set [2], the Activity was 70%. Moreover, the EC50 in [4] is 726 nM.

For `CCN(CC)c1nccc2cc(Nc3n[nH]c4cccnc34)ccc12`, the Activity in [2] worked out at 95%. For the same compound, the EC50 in [4] worked out at 164 nM.

For the compound `O=c1[nH]ccc2cc(Nc3n[nH]c4cccnc34)ccc12`, the IC50 is over 30000 nM against Cytochrome P450 3A4, over 30000 nM against Cytochrome P450 2C9 and 3300 nM against Cytochrome P450 1A2. For the same compound, the Activity in data set [2] was 77%. In [4], the EC50 worked out at 264 nM.

Regarding `c1cnc2c(Nc3ccc4cnccc4n3)n[nH]c2c1`, the EC50 in data set [4] is over 10000 nM.

On to `c1cnc2c(Nc3ccc4c(NC5CCC5)nccc4c3)n[nH]c2c1`, for which the Activity in [2] was 71%. In data set [4], the EC50 worked out at 869 nM.

As to `c1cnc2c(Nc3ccc4c(N5CCCC5)nccc4c3)n[nH]c2c1`, the Activity in data set [2] stood at 54%. Besides, the EC50 in data set [4] amounted to 1690 nM.

As to `FC(F)(F)C1CCCCN1c1nccc2cc(Nc3n[nH]c4cccnc34)ccc12` (stereo not given), the Activity in [2] is 57%. Moreover, the EC50 in data set [4] was found to be 306 nM.

`FC(F)(F)c1nccc2cc(Nc3n[nH]c4ncccc34)ccc12` yielded a Kp at 0.25 h in data set [5] of 1.5. The minimal effective dose with Rattus norvegicus [8] stood at 1 mg/kg. Besides, the Activity in data set [2] is 93%; in the data set with Rattus norvegicus [3], 50%. The concentration for a half-maximal effect (EC50) in [9] is 197 nM; in data set [4], 65 nM. At Cytochrome P450 2C19, this compound returned an IC50 of 12500 nM. For the same compound, the Emax in data set [10] was determined as 123%.

Regarding `Cc1ccn(-c2nccc3cc(Nc4n[nH]c5cccnc45)ccc23)n1`, in data set [2], the Activity came to 84%. Moreover, in data set [4], the EC50 was found to be 237 nM.

Consider `Cn1ccc2cc(Nc3n[nH]c4cccnc34)ccc2c1=O`, for which the Activity in [2] is 30%. For the same compound, the EC50 in [4] was over 10000 nM.

Turning to `c1cnc2cc(Nc3n[nH]c4cccnc34)ccc2c1`, the concentration for a half-maximal effect (EC50) in [4] was over 10000 nM.

For the compound `Cn1nc(C(F)(F)F)cc1-c1nccc2cc(Nc3n[nH]c4cccnc34)ccc12`, the Activity in [2] is 84%. Also, in [4], the EC50 is 132 nM.

In the case of `c1cnc2c(Nc3ccc4c(-n5cccn5)nccc4c3)n[nH]c2c1`, the concentration ratio (Kp) at 0.25 h in data set [5] was determined as 1.37. Moreover, the IC50 is 13000 nM on Cytochrome P450 3A4, 7300 nM at Cytochrome P450 2C9, 1500 nM against Cytochrome P450 1A2 and 7200 nM on Cytochrome P450 2D6. Further, the Activity in data set [2] worked out at 85%. The same compound showed a CLH in [11] of 35.7 mL/min/kg. The Fu was 0.029% in data set [12], 0.09 fraction in data set [6] and 0.046 fraction in [7]. Also, the EC50 in [4] is 63 nM.

`Cn1nccc1-c1nccc2cc(Nc3n[nH]c4cccnc34)ccc12` registered a Kp at 0.25 h in data set [5] of 1.6. Further, in data set [2], the Activity is 78%. In data set [11], this compound had a CLH of 11.5 mL/min/kg. The Fu turned out to be 0.096 fraction in data set [6] and 0.088 fraction in data set [7]. Further, the EC50 in data set [4] came to 45 nM.

For the compound `c1cnc2c(Nc3ccc4ncncc4c3)n[nH]c2c1`, in data set [4], the half-maximal effective concentration (EC50) is over 10000 nM.

`c1cnc2c(Nc3ccc4nccnc4c3)n[nH]c2c1`: the EC50 in data set [4] was over 10000 nM.

On to `c1ccc2cc(Nc3n[nH]c4cccnc34)ccc2c1`, for which the Activity in data set [2] came out at 79%. Moreover, in data set [4], the EC50 was found to be 403 nM.

On to `CCc1nccc2cc(Nc3n[nH]c4cccnc34)ccc12`, for which, in data set [2], the Activity was found to be 64%. Also, on Cytochrome P450 1A2, the IC50 is under 1000 nM. In data set [4], the EC50 worked out at 45 nM.

With `c1cnc2c(Nc3ccc4cnccc4c3)n[nH]c2c1`, in [1], the t1/2 amounted to 10.2 h. The IC50 was 440 nM against Cytochrome P450 3A4, 1350 nM at Cytochrome P450 2C9, 150 nM against Cytochrome P450 1A2 and 3980 nM at Cytochrome P450 2D6. Also, the Activity in data set [2] is 114%. Moreover, the Vdss in [13] is 4.88 L/kg. Besides, the figures for the Fu in [12] and in data set [6] were 0.029% and 0.092 fraction, respectively. In addition, the fraction unbound in data set [7] amounted to 0.046. For the same compound, the EC50 in data set [4] was 76 nM.

Consider `c1ccc(CNc2nccc3cc(Nc4n[nH]c5cccnc45)ccc23)cc1`, for which the Activity in data set [2] is 58%. Further, the EC50 in data set [4] turned out to be 1360 nM.

In turn, `FC(F)(F)c1nccc2cc(Nc3n[nH]c4cccnc34)ccc12` displayed a Kp at 0.25 h in [5] of 4.3. The same compound gave a half-life in data set [1] of under 1 h. The Activity in data set [2] was 77%; with Rattus norvegicus [3], 24%. Further, the EC50 in data set [4] turned out to be 18 nM.

The values are drawn from ChEMBL document CHEMBL4665621, “The discovery of VU0652957 (VU2957, Valiglurax): SAR and DMPK challenges en route to an mGlu PAM development candidate” (Bioorg Med Chem Lett, 2019).
